Experimental data taken from PMC7618597, “Dual Nurr1/RXR agonism of valerenic acid and synthetic mimetics enables dimer-selective Nurr1 modulation” (ACS medicinal chemistry letters, 2025).

Target: Nurr1:RXR heterodimer (Homo sapiens, UniProt P19793+P43354)
Experiment: Nurr1 LBD:RXRα LBD heterodimerization assay (HTRF)
Type: biochemical
Conditions: 30 μM, Tb3+-cryptate Nurr1 LBD and sGFP-RXRα LBD
Protocol: To determine the molecular response of the Nurr1:RXR heterodimer on dual agonist binding, we employed homogenous time-resolved fluorescence resonance energy transfer (HTRF) based assays with labeled Nurr1 and RXR LBD proteins. Tb^3+-cryptate as streptavidin conjugate served as FRET donor and was coupled to biotinylated proteins. sGFP fusion proteins of the receptors of interest were used as FRET acceptors. Ligand effects on dimer formation were determined by titrating the sGFP-labeled dimer partner with a fixed concentration of the Tb^3+-labeled counterpart. […] The same effect was also observable for the natural product 1 (Figure S3).
Nurr1 dimerization assays (HTRF). Modulation of Nurr1 LBD homodimerization and heterodimerization of the LDBs of Nurr1 and RXRα was investigated by HTRF as reported previously4. Nurr1 LBD or RXRα LBD proteins labeled with sGFP were titrated against a fixed concentration of Tb3+-cryptate as streptavidin conjugate (Tb-SA) (610SATLF, Revvity) coupled to biotinylated Nurr1 LBD protein in the presence of test compounds at 30 µM or absence of compound as a negative control (apo). Assay solutions were prepared in buffer containing 25 mM HEPES pH 7.5, 150 mM KF, 5% (m/v) glycerol, 5 mM DTT, 0.1% (m/v) CHAPS and 1%
DMSO. The FRET donor complex was formed from biotinylated Nurr1 LBD (final concentration 0.188 nM) and Tb-SA (0.375 nM) and was kept constant. For the homodimerization assay, the FRET acceptor consisted of sGFP-Nurr1 LBD, which was titrated from 0.5 µM, while free sGFP was added to keep the total GFP content stable at 0.5 µM. […] Samples were equilibrated at room temperature for 2 h and fluorescence intensities (FI) after excitation at 340 nm were recorded at 520 nm for sGFP acceptor fluorescence and at 620 for Tb-SA donor fluorescence on a SPARK plate reader (Tecan Group Ltd.). […]
Evaluation of Nurr1-regulated gene expression. […] RNA concentration and purity were assessed using a NanoDrop One UV-vis spectrophotometer (Thermo Fisher Scientific) at 260/280 nm. […]

Chain of Nurr1:RXR heterodimer (P43354 360-595 limits assumed): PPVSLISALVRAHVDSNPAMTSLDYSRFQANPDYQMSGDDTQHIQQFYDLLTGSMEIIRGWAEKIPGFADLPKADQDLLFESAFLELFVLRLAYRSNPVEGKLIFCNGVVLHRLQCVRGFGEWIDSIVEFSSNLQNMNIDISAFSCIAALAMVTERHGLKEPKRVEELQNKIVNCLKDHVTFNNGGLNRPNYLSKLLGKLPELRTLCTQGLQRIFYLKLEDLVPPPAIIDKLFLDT
Chain of Nurr1:RXR heterodimer (P19793 227-458 limits assumed): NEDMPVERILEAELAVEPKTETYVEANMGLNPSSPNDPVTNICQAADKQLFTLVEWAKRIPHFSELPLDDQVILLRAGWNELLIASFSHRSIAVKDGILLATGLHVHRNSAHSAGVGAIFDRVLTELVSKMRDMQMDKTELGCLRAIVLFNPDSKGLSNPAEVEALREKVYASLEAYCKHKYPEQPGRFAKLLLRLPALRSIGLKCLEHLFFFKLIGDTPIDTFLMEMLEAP

| SMILES | Nurr1:RXR heterodimer formation |
| --- | --- |
| Cc1c2c(n(-c3ccc(CC(=O)O)cc3)c1C)CCC(F)(F)C2 [compound 2] | left the dimer intact |
| Cc1c(C)n(-c2ccc(CC(=O)O)cc2)c2ccc(F)cc12 [compound 3] | left the dimer intact |
